Series [1] relates to β-catenin-dependent Wnt-pathway. The series is described as follows: TopFlash luciferase reporter assay, CHIR99021-stimulated, HCC1395. In kind it is cell-based. Conditions: for GSK HCC1395 Comments: Table S2; for IC50 / Emax: Homo sapiens; for TopFlash activity in words: HCC1395, CHIR99021; for Emax: read-out: HCC1395 TopFlash Efficacy. An excerpt: Both stimulations abolish formation of the destruction complex, a multiprotein complex consisting of Axin, adenomatous polyposis coli (APC), glycogen synthase kinase three beta (GSK3β), and casein kinase one alpha (CK1α). Upon inactivation of the complex, β-catenin accumulates in the cytoplasm and translocates into the nucleus where it interacts with transcription factors. These downstream events are quantified by a Luciferase transcription-based readout assay (TopFlash assay).
On the technique in general: A reporter such as luciferase makes a cellular process visible.

Series [2] can be described thus: in vitro. Conditions: human. On the procedure:
(§1) The simplicity of the scaffold combined with synthetic accessibility allows building a library of compounds and performing structure activity relationship (SAR) studies of the three main parts of the molecule: the top part, the linker and the core (Figure 2).
(§2) The synthesized compounds were used to explore SAR of three defined areas of investigation (Figure 2). All compounds were tested in the HCC1395 TNBC cell line using the GSK3β inhibitor to induce β-catenin signaling since 4a acted downstream of GSK3β (Figure 2). Both inhibition of β-catenin signaling measured by the TopFlash reporter and cytotoxicity measured by the Renilla reporter were assessed.
(§3) The Wnt3a or CHIR99021-stimulated luciferase activity in HCC1395 TNBC cell line stably transfected with the TopFlash reporter was analyzed essentially as described for the BT-20 TNBC cell line ([Shaw et al., 2019b]; [Koval et al., 2021]). Reporter cells were seeded at 10,000 cells/well in a white opaque 384-well plate in the final volume of 20 μl of DMEM medium supplemented with 10% FCS. The cells were maintained incubated at 37°C, 5% CO2 overnight for attachment. Subsequently, they were transfected by a plasmid encoding constitutively expressed Renilla luciferase under the CMV promoter overall as described in the manufacturer’s protocol using 12 μg/ml of DNA and 40 μl/ml XtremeGENE nine reagent. The next day, the medium in each well was replaced with a 10 μl of fresh medium containing compound of interest, and, after 1 h of preincubation with the compounds, additional 10 μl of medium supplemented with Wnt3a [purified as described ([Willert et al., 2003]; [Koval and Katanaev, 2011])] or CHIR99021 were added creating respective final concentrations of 2.5 μg/ml or 5 μM of each. In case of other signal transduction reporters, no additional stimulation was performed. Compound dilutions were prepared by serial dilution in DMSO and diluted with the amount of medium necessary to obtain their final concentrations indicated on the figures and tables and maintain concentration of DMSO of 0.5% in all assay points. After overnight incubation, the supernatant in each well was removed, and the luciferase activity was measured as described ([Dyer et al., 2000]; [Huber et al., 2021]; [Pellissier et al., 2021]). The culture medium was completely removed from all wells of the plate. Finally, the luciferase activity of the firefly and Renilla luciferases was detected sequentially in individual wells of a 384-well plate through injection of corresponding measurement solutions and immediate reading (400 ms integration time) in Infinite M Plex multifunctional plate reader with injection module.

For series [3], the system named is HCC1395 cells. The series is described as follows: in vitro. Conditions: for HCC1395 Cytotoxicity Efficacy: human. The protocol:
as §1, §2, §3

Setting [4] is: HCC1395, HCC1395, stimulation with CHIR99021 (GSK3β inhibitor), read-out: HCC1395 TopFlash IC50.
The mark [5] stands for this setting: HCC1395, HCC1395, stimulation with CHIR99021 (GSK3β inhibitor).
Where [6] appears, read: HCC1395, Table S2, TopFlash, GSK3β inhibitor stimulation, read-out: GSK HCC1395 IC50.

Broadly, the IC50 is the concentration needed to halve the response being measured.

Where two headings read alike, the source gives them in different places.

Turning to `Fc1ccccc1CNc1ncnc2sccc12` [Compound 4e, N-(2-fluorobenzyl)thieno[2,3-d]pyrimidin-4-amine], the “GSK HCC1395 Comments” value in series [1] is listed as “Toxic”. The IC50 in series [2] (HCC1395 Cytotoxicity IC50) was 7.45 ± 2.08 µM. In series [3], the “Cytotoxicity (Renilla) in words” value is listed as “toxicity”.

With `Fc1cccc(CNc2ncnc3sccc23)c1` [Compound 4f, N-(3-fluorobenzyl)thieno[2,3-d]pyrimidin-4-amine], the IC50 in series [1] (setting [4]) was greater than 50 µM. The “GSK HCC1395 Comments” value in series [1] is listed as “Inactive”.

For `Clc1ccccc1CNc1ncnc2sccc12` [Compound 4h, N-(2-chlorobenzyl)thieno[2,3-d]pyrimidin-4-amine], the “GSK HCC1395 Comments” value in series [1] is recorded as “Toxic”. This molecule also had an IC50 in series [2] (HCC1395 Cytotoxicity IC50) of 8.61 ± 4.38 µM. Besides, in series [3], the “HCC1395 Cytotoxicity Efficacy” value was found to be 67.1 ± 7.8%.

Turning to `N#Cc1ccccc1CNc1ncnc2sccc12` [Compound 4k, 2-((thieno[2,3-d]pyrimidin-4-ylamino)methyl)benzonitrile], in series [1] (setting [4]), the IC50 is greater than 50 µM. Also, the “GSK HCC1395 Comments” value in series [1] is “Inactive”.

As for `N#Cc1cccc(CNc2ncnc3sccc23)c1` [Compound 4l, 3-((thieno[2,3-d]pyrimidin-4-ylamino)methyl)benzonitrile], the “GSK HCC1395 Comments” value in series [1] is reported as “Toxic”. The molecule also yielded an IC50 in series [2] (HCC1395 Cytotoxicity IC50) of 10 ± 3.36 µM. Further, the “HCC1395 Cytotoxicity Efficacy” value in series [3] is recorded as 32.2 ± 10.5%.

Consider `N#Cc1ccc(CNc2ncnc3sccc23)cc1` [Compound 4m, 4-((thieno[2,3-d]pyrimidin-4-ylamino)methyl)benzonitrile], for which, in series [1], the “TopFlash activity in words” value is reported as “abrogated the activity” and the “GSK HCC1395 Comments” value is on record as “Inactive”. In series [1] (setting [4]), the half-inhibitory concentration (IC50) was greater than 50 µM. For the same molecule, the “GSK HCC1395 Renilla Comments” value in series [3] was “Non-toxic”.

For `COc1cccc(C(C)Nc2ncnc3sccc23)c1` (stereo not shown) [Compound 5b, N-(1-(3-methoxyphenyl)ethyl)thieno[2,3-d]pyrimidin-4-amine], the “TopFlash activity in words” value in series [1] is “inactive”. Further, the half-maximal inhibitory concentration (IC50) in series [1] (setting [4]) is greater than 50 µM. Further, the “GSK HCC1395 Renilla Comments” value in series [3] is on record as “Non-toxic”.

Consider `CC(Nc1ncnc2sccc12)c1ccc(F)cc1` (stereo not shown) [Compound 5c, N-(1-(4-fluorophenyl)ethyl)thieno[2,3-d]pyrimidin-4-amine], for which, in series [1] (setting [5]), the Emax was 46.9 ± 8.41%. Besides, the IC50 was 2.1 ± 1.64 µM in series [1] (setting [4]) and greater than 50 µM in series [2] (HCC1395 Cytotoxicity IC50).

Turning to `Cc1ccc(C(C)Nc2ncnc3sccc23)cc1` (stereo not shown) [Compound 5e, N-(1-(p-tolyl)ethyl)thieno[2,3-d]pyrimidin-4-amine], in series [1] (setting [5]), the Emax came out at 47 ± 9.67%. Besides, the IC50 in series [1] (setting [4]) is 0.63 ± 0.21 µM; in series [2] (HCC1395 Cytotoxicity IC50), greater than 50 µM.

On to `c1ccc(Nc2ncnc3sccc23)cc1` [Compound 5f, N-phenylthieno[2,3-d]pyrimidin-4-amine], for which, in series [1], the “TopFlash activity in words” value is “inactive”. Further, in series [1] (setting [4]), the IC50 is greater than 50 µM.

`CCN(Cc1cccc(OC)c1)c1ncnc2sccc12` [Compound 5i, N-ethyl-N-(3-methoxybenzyl)thieno[2,3-d]pyrimidin-4-amine]: the “GSK HCC1395 Comments” value in series [1] was “Toxic”. Besides, inhibition in series [2] (HCC1395 Cytotoxicity IC50) was half-maximal at 8.3 ± 3.79 µM (IC50). Also, the “HCC1395 Cytotoxicity Efficacy” value in series [3] is 64.1 ± 9.3%.

In the case of `COc1cccc(CCNc2ncnc3sccc23)c1` [Compound 5n, N-(3-methoxyphenethyl)thieno[2,3-d]pyrimidin-4-amine], in series [1], the “TopFlash activity in words” value is “not tolerated” and the “GSK HCC1395 Comments” value is “Inactive”. The IC50 in series [1] (setting [4]) was greater than 50 µM.

Consider `COc1cccc(C(=O)Nc2ncnc3sccc23)c1` [Compound 7, 3-methoxy-N-(thieno[2,3-d]pyrimidin-4-yl)benzamide], for which the IC50 in series [1] (setting [4]) was greater than 50 µM. Moreover, the “GSK HCC1395 Comments” value in series [1] is given as “Inactive”.

As to `COc1ccccc1CNc1ncnc2ccccc12` [Compound 9a, N-(2-methoxybenzyl)quinazolin-4-amine], in series [1], the “GSK HCC1395 Comments” value is “Toxic”. The same molecule displayed an IC50 in series [2] (HCC1395 Cytotoxicity IC50) of 29 ± 14.5 µM. Besides, the “HCC1395 Cytotoxicity Efficacy” value in series [3] came out at 100 ± 0%.

Regarding `Clc1ccc(CCNc2ncnc3ccccc23)cc1` [Compound 9g, N-(4-chlorophenethyl)quinazolin-4-amine], the “GSK HCC1395 Comments” value in series [1] is reported as “Toxic”. For the same molecule, in series [2], the IC50 turned out to be 13 ± 1.45 µM. Also, the “HCC1395 Cytotoxicity Efficacy” value in series [3] is 100 ± 0%.

Consider `CC(Nc1ncnc2ccccc12)c1ccc(F)cc1` (stereo not shown) [Compound 9h, N-(1-(4-fluorophenyl)ethyl)quinazolin-4-amine], for which the Emax in series [1] (setting [5]) was determined as 66.4 ± 6.9%. Moreover, the IC50 in series [1] (setting [4]) was 10.7 ± 2.33 µM; in series [2] (HCC1395 Cytotoxicity IC50) it was 16.6 ± 6.59 µM. In series [3], the “HCC1395 Cytotoxicity Efficacy” value is 51.1 ± 21.3%.

In the case of `COc1cccc(CNc2ncnc3c(C)csc23)c1` [Compound 10, N-(3-methoxybenzyl)-7-methylthieno[3,2-d]pyrimidin-4-amine], the “TopFlash activity in words” value in series [1] is “no longer active”. The IC50 in series [1] (setting [4]) is greater than 100 µM; in series [1] (setting [6]), greater than 50 µM; in series [2] (HCC1395 Cytotoxicity IC50), greater than 100 µM. Moreover, in series [1], the “GSK HCC1395 Comments” value was “Inactive”. Further, in series [3], the “GSK HCC1395 Renilla Comments” value is recorded as “Non-toxic”.

`COc1cccc(CNc2cc(Cl)ncn2)c1` [Compound 11, 6-chloro-N-(3-methoxybenzyl)pyrimidin-4-amine]: in series [1], the “TopFlash activity in words” value was “no longer active”. For the same molecule, in series [1] (setting [5]), the Emax is 100%. Moreover, the concentration for half-maximal inhibition (IC50) in series [1] (setting [4]) was 58.2 ± 1.48 µM; in series [1] (setting [6]) it was greater than 50 µM.

On to `COc1cccc(CNc2ccncn2)c1` [Compound 12, N-(3-methoxybenzyl)pyrimidin-4-amine], for which, in series [1], the “TopFlash activity in words” value is recorded as “no longer active” and the “GSK HCC1395 Comments” value is on record as “Inactive”. Also, the IC50 in series [1] (setting [4]) is greater than 100 µM. For the same molecule, in series [1] (setting [6]), the IC50 is greater than 50 µM.

Regarding `COc1cccc(CNc2nccc3ccccc23)c1` [Compound 13, N-(3-methoxybenzyl)isoquinolin-1-amine], the IC50 in series [1] (setting [4]) was greater than 100 µM; in series [1] (setting [6]), greater than 50 µM; in series [2] (HCC1395 Cytotoxicity IC50), greater than 100 µM. Also, in series [3], the “GSK HCC1395 Renilla Comments” value is on record as “Non-toxic”.

`COc1cccc(CNc2ccnc3ccccc23)c1` [Compound 16, N-(3-methoxybenzyl)quinolin-4-amine]: the “GSK HCC1395 Comments” value in series [1] is “Toxic”. Moreover, the IC50 in series [2] (HCC1395 Cytotoxicity IC50) worked out at 18.7 µM. Besides, the “HCC1395 Cytotoxicity Efficacy” value in series [3] is 39.4 ± 13.0%.

Values taken from article PMC9649909, “Wnt-pathway inhibitors with selective activity against triple-negative breast cancer: From thienopyrimidine to quinazoline inhibitors” (Frontiers in Pharmacology, 2022).
